Test results as given in patent publication US20210024507A1, “Compounds” (Step Pharma S.A.S., priority 2018, published 2021).

How the values were obtained:
human CTPS1 [1] = target: T1, human CTPS1 (Homo sapiens, UniProt P17812); assay: Human CTPS1 enzyme inhibition (ADP-Glo Max assay); assay type: biochemical; conditions: human full length CTPS1, 25° C., read-out: CTPS1 (Human CTPS1 Enzyme Inhibition, IC50 grouped by potency range)
T1 construct: purchased Proteros biostructures GmbH
T1 sequence (P17812 1-591): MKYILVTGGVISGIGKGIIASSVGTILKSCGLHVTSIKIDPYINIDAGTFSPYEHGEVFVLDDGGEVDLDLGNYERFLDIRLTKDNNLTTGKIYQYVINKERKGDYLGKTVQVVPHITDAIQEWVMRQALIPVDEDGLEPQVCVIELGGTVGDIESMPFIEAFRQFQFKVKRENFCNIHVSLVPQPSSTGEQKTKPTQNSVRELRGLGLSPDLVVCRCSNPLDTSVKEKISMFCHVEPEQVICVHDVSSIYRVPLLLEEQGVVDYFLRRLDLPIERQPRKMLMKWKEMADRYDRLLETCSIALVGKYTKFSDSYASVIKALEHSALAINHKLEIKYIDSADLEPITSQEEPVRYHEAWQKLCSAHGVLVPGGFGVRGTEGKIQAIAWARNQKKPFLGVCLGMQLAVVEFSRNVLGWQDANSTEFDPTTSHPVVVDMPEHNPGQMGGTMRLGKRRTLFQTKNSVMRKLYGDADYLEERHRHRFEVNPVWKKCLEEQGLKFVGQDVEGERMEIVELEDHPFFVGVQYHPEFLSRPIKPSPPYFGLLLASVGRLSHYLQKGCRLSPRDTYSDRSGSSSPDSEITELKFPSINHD
Protocol: The enzyme inhibitory activities of compounds invented against the target of interest were determined using the ADP-GIoTM Max assay (Promega, UK). Assays for human CTPS1 were performed in lx assay buffer containing 50mM Tris, 10mM MgCl2, 0.01% Tween-20, pH to 8.0 accordingly. Finally, immediately before use, L-cysteine was added to the lx assay buffer to a final concentration of 2mM. All reagents are from Sigma-Aldrich unless specified otherwise. Human full length active C-terminal FLAG-Hiss-tag CTPS1 (UniProtKB - P17812, CTPS[1-591]-[…]) was obtained from Proteros biostructures GmbH.
Assay Procedure 3× human CTPS1 protein was prepared in lx assay buffer to the final working protein concentration required for the reaction. A 2uL volume per well of 3x human CTPS1 protein was mixed with 2uL per well of 3× test compound (compound prepared in lx assay buffer to an appropriate final 3× compound concentration respective to the concentration response curve designed for the compounds under test) for 10 minutes at 25° C. The enzymatic reaction was then initiated by addition of a 2uL per well volume of a pre-mixed substrate mix (UltraPure ATP from ADP-GIo™ Max kit (0.31mM), GTP (0.034mM), UTP (0.48mM) and L-glutamine (0.186mM)) and the mixture was incubated for an appropriate amount of time within the determined linear phase of the reaction at 25° C. under sealed plate conditions with constant agitation at 500 revolutions per minute (rpm). ADP-GIo™ Max reagent was added for 60 minutes ([…] per well) and subsequently ADP-GIo™ Max development reagent was added for 60 minutes (12uL per well) prior to signal detection in a microplate reader (EnVision® Multilabel Reader, Perkin Elmer). Following each reagent addition over the course of the assay, assay plates were pulse centrifuged for 30 seconds at 500rpm.
In all cases, the enzyme converts ATP to ADP and the ADP-GIo™ Max reagent subsequently depletes any remaining endogenous ATP in the reaction system. The ADP-GIo™ Max detection reagent converts the ADP that has been enzymatically produced back into ATP and using ATP as a substrate together with luciferin for the enzyme luciferase, light is generated which produces a detectable luminescence. […] The percentage inhibition produced by each concentration of compound was calculated using the equation shown below: […]
(§1) Percentage inhibition was then plotted against compound concentration, and the 50% inhibitory concentration (IC50) was determined from the resultant concentration-response curve.

human CTPS1 [2] = assay: RapidFire/MS-based enzyme selectivity assay, human CTPS1; assay type: biochemical; conditions: calculated from the CTPS1 and CTPS2 IC50 values
Protocol: The enzyme inhibitory activities against each target isoform of interest may be determined for the compounds of the invention using an optimised RapidFire high-throughput mass spectrometry (RF/MS) assay format. RF/MS assays for both human CTPS1 and CTPS2 may be performed in assay buffer consisting of 50mM HEPES (Merck), 20mM MgCl2, 5mM KCI, 1mM DTT, 0.01% Tween-20, pH to 8.0 accordingly. Human full-length active C-terminal FLAG-His-tag CTPS1 (UniProtKB - P17812, CTPS[1-591]-[…]) may be obtained from Proteros biostructures GmbH. Human full length active C-terminal FLAG-His-Avi tagged CTPS2 (UniProtKB-Q9NRF8, CTPS2 [1-586]- […]) may be obtained from Harker Bio.
Human CTPS (1 or 2) protein may be prepared in lx assay buffer to the final working protein concentration required for the reaction. A 2uL volume per well of 2× CTPS (1 or 2) protein may be mixed with 40nL of compound using acoustic (ECHO) delivery and incubated for 10 minutes at 25° C. Each isoform enzymatic reaction may be subsequently initiated by addition of 2uL per well of a 2× substrate mix in assay buffer. For hCTPS1: ATP (0.3mM), UTP (0.2mM), GTP (0.07mM) and L-glutamine (0.1mM). For hCTPS2: ATP (0.1mM), UTP (0.04mM), GTP (0.03mM) and L-glutamine (0.1mM). Each mixture may be incubated for an appropriate amount of time per isoform within the determined linear phase of the reaction at 25° C. A 60uL volume of stop solution (1% formic acid with 0.5uM ^13C9-^15N3-CTP in H2O) may be added and the plate immediately heat-sealed and centrifuged for 10 minutes at 4,000rpm. Following centrifugation, plates may be loaded onto the Agilent RapidFire microfluidic solid phase extraction system coupled to an AP14000 triple quadrupole mass spectrometer (RF/MS) for analysis.
In all cases, the enzyme converts UTP to CTP. Highly specific and sensitive multiple reaction monitoring (MRM) MS methods may be optimised for the detection of the enzymatic reaction product, CTP, and the stable isotope labelled product standard ^13C9-^15N3-CTP. Readout for data analysis may be calculated as the ratio between the peak area of the product CTP and the internal standard ^13C9-^15N3-CTP. For data reporting, the following equation may be used:
[formula] (R=ratio/readout, P=product signal area, IS=internal standard signal area)
For each screening plate, the means of the negative (DMSO) and positive control values were used for the calculation of the respective assay window (S/B) and Z′ values. The median of the respective control values was used for calculation of percent inhibition according to the following equation:
[formula] (I=Inhibition, Rneg=median of negative control readout values, Rpos=median of positive control readout values, Rsample=sample readout value)
as §1
Fold selectivity between CTPS1 and CTPS2 was subsequently calculated according to the following equation: […]

SMILES	IC50 (human CTPS1 [1])	Selectivity (fold selectivity between CTPS1 and CTPS2) (human CTPS1 [2])
CCOc1cncc(-c2ccc(NC(=O)C(F)(CC)c3ccnc(NS(=O)(=O)C4CC4)n3)nc2)n1 (racemic) [P112, 2-(2-(Cyclopropanesulfonamido)pyrimidin-4-yl)-N-(5-(6-ethoxypyrazin-2-yl)pyridin-2-yl)-2-fluorobutanamide]	≤ 100 nM	++ (>30-60 fold (++))
CCOc1cncc(-c2ccc(NC(=O)C(F)(CC)c3ccnc(NS(=O)(=O)C4CC4)n3)nc2)n1 (single isomer, unassigned) [P113, 2-(2-(cyclopropanesulfonamido)pyrimidin-4-yl)-N-(5-(6-ethoxypyrazin-2-yl)pyridin-2-yl)-2-fluorobutanamide]	≤ 100 nM	+ (2-30 fold (+))
CCOc1cncc(-c2ccc(NC(=O)C(F)(CC)c3ccnc(NS(=O)(=O)C4CC4)n3)nc2)n1 (single isomer, unassigned) [P114, 2-(2-(cyclopropanesulfonamido)pyrimidin-4-yl)-N-(5-(6-ethoxypyrazin-2-yl)pyridin-2-yl)-2-fluorobutanamide]	≤ 100 nM	+++ (>60 fold (+++))
CCOc1cncc(-c2ccc(NC(=O)C(F)(CC)c3cncc(NS(=O)(=O)C4CC4)n3)nc2)n1 (single isomer, unassigned) [P206, 2-(6-(cyclopropanesulfonamido)pyrazin-2-yl)-N-(5-(6-ethoxypyrazin-2-yl)pyridin-2-yl)-2-fluorobutanamide]	≤ 100 nM	+++ (>60 fold (+++))
CCOc1cncc(-c2ccc(NC(=O)C(F)(CC)c3cncc(NS(=O)(=O)C4CC4)n3)nc2)n1 (single isomer, unassigned) [P207, 2-(6-(cyclopropanesulfonamido)pyrazin-2-yl)-N-(5-(6-ethoxypyrazin-2-yl)pyridin-2-yl)-2-fluorobutanamide]	≤ 100 nM	+ (2-30 fold (+))
CCC(C(=O)Nc1ccc(-c2cncc(Cl)c2)cc1)c1ccnc(NS(=O)(=O)C2CC2)n1 (centres unmarked) [P1, N-(4-(5-Chloropyridin-3-yl)phenyI)-2-(2-(cyclopropanesulfonamido)pyrimidin-4-yl)butanamide]	100 to 1000 nM	+ (2-30 fold (+))
CCC(C(=O)Nc1ccc(-c2cncc(C(F)(F)F)n2)cn1)c1ccnc(NS(=O)(=O)C2CC2)n1 (centres unmarked) [P87, 2-(2-(cyclopropanesulfonamido)pyrimidin-4-yl)-N-(5-(6-(trifluoromethyl)pyrazin-2-yl)pyridin-2-yl)butanamide]	≤ 100 nM	++ (>30-60 fold (++))
CCOc1cncc(-c2ccc(NC(=O)C(CC)c3ccnc(NS(=O)(=O)C4CC4)n3)nc2)n1 (centres unmarked) [P88, 2-(2-(cyclopropanesulfonamido)pyrimidin-4-yl)-N-(5-(6-ethoxypyrazin-2-yl)pyridin-2-yl)butanamide]	≤ 100 nM	+++ (>60 fold (+++))
CCC(C(=O)Nc1ccc(-c2cncc(OC(C)C)n2)cn1)c1ccnc(NS(=O)(=O)C2CC2)n1 (centres unmarked) [P89, 2-(2-(cyclopropanesulfonamido)pyrimidin-4-yl)-N-(5-(6-isopropoxypyrazin-2-yl)pyridin-2-yl)butanamide]	≤ 100 nM	+++ (>60 fold (+++))
CCC(C(=O)Nc1ccc(-c2cncc(OC)n2)cc1F)c1ccnc(NS(=O)(=O)C2CC2)n1 (centres unmarked) [P95, 2-(2-(cyclopropanesulfonamido)pyrimidin-4-yl)-N-(2-fluoro-4-(6-methoxypyrazin-2-yl)phenyl)butanamide]	≤ 100 nM	+ (2-30 fold (+))
CCOc1cncc(-c2ccc(NC(=O)C(CC)c3ccnc(NS(=O)(=O)C4CC4)n3)c(F)c2)n1 (centres unmarked) [P96, 2-(2-(cyclopropanesulfonamido)pyrimidin-4-yl)-N-(4-(6-ethoxypyrazin-2-yl)-2-fluorophenyl)butanamide]	≤ 100 nM	+ (2-30 fold (+))
CCC(C(=O)Nc1ccc(-c2cncc(OCC(F)(F)F)n2)cc1F)c1ccnc(NS(=O)(=O)C2CC2)n1 (centres unmarked) [P98, 2-(2-(cyclopropanesulfonamido)pyrimidin-4-yl)-N-(2-fluoro-4-(6-(2,2,2-trifluoroethoxy)pyrazin-2-yl)phenyl)butanamide]	≤ 100 nM	+++ (>60 fold (+++))
CCC(C(=O)Nc1ccc(-c2cncc(C(F)(F)F)n2)cc1)c1ccnc(NS(=O)(=O)C2CC2)n1 (centres unmarked) [P103, 2-(2-(cyclopropanesulfonamido)pyrimidin-4-yl)-N-(4-(6-(trifluoromethyl)pyrazin-2-yl)phenyl)butanamide]	100 to 1000 nM	+ (2-30 fold (+))
CCOc1cncc(-c2ccc(NC(=O)C(CC)c3ccnc(NS(=O)(=O)C4CC4)n3)cc2)n1 (centres unmarked) [P105, 2-(2-(cyclopropanesulfonamido)pyrimidin-4-yl)-N-(4-(6-ethoxypyrazin-2-yl)phenyl)butanamide]	≤ 100 nM	++ (>30-60 fold (++))
CC(C)(NC(=O)c1ccc(-c2cncc(C(F)(F)F)n2)cc1)c1cncc(NS(=O)(=O)C2CC2)n1 [P222, N-(2-(6-(cyclopropanesulfonamido)pyrazin-2-yl)propan-2-yl)-4-(6-(trifluoromethyl)pyrazin-2-yl)benzamide]	–	+ (2-30 fold (+))
